Laboratory results from PMC7150891, “Mertansine Inhibits mRNA Expression and Enzyme Activities of Cytochrome P450s and Uridine 5′-Diphospho-Glucuronosyltransferases in Human Hepatocytes and Liver Microsomes” (Pharmaceutics, 2020).
Entries after “also recorded” stand apart in the source; their conditions may differ.

How the values were obtained:
[1] = test system: CYP1A2 mRNA (suppression of expression); assay: CYP1A2 mRNA level in human hepatocytes after 48 h treatment (RT-PCR); type: cell-based; conditions: 1.25–2500 nM
Excerpt: 12.5 (Systat Software, Inc.; San Jose, CA, USA). […] 1.1 (Systat Software, Inc.).

UGT1A1 = molecular target: T1, UGT1A1 (Homo sapiens, UniProt P22309); assay: Inhibition of UGT1A1-catalyzed SN-38 glucuronidation in ultrapooled human liver microsomes; type: in vitro ADME
T1 construct: ultrapooled human liver microsomes (0.2 mg/mL); from tissue; host or cells: human liver microsomes (ultrapooled)
T1 sequence (P22309 26-533): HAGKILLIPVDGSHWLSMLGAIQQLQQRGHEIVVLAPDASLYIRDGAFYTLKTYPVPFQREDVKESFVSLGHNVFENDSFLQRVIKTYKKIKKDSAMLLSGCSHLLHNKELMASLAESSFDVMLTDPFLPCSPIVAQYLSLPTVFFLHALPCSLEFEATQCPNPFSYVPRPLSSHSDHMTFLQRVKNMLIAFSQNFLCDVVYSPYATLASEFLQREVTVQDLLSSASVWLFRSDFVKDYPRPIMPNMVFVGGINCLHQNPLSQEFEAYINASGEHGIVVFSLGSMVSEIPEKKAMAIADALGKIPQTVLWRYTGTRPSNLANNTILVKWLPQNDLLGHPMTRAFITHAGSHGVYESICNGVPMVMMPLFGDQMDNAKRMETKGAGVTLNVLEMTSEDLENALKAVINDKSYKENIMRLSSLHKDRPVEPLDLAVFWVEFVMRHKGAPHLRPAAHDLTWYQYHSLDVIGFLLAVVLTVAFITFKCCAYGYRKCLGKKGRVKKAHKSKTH
Procedure: The inhibitory potential of mertansine on UGT1A1, UGT1A3, UGT1A4, UGT1A6, UGT1A9, and UGT2B7 activities was evaluated using liquid chromatography–tandem mass spectrometry (LC-MS/MS) with a cocktail of UGT substrates and ultrapooled human liver microsomes. Each incubation mixture was prepared to a final volume of 100 μL as follows: ultrapooled human liver microsomes (0.2 mg/mL), 5 mM UDPGA, 10 mM magnesium chloride, alamethicin (25 μg/mL), 50 mM Tris buffer (pH 7.4), various concentrations of mertansine in methanol (final concentrations of 0.01–50 μM), and the cocktail sets of UGT enzyme-specific substrates. Two cocktail sets were used: set A contained 0.5 μM SN-38 for UGT1A1, 2 μM chenodeoxycholic acid for UGT1A3, and 0.5 μM trifluoperazine for UGT1A4; and set B contained 1 μM N-acetylserotonin for UGT1A6, 0.2 μM mycophenolic acid for UGT1A9, and 1 μM naloxone for UGT2B7. The reactions were initiated by adding UDPGA and incubated in a shaking water bath for 60 min at 37 °C. […] Next, 50 μL of each supernatant of sets A and B was mixed, and aliquots (5 μL) were analyzed using LC-MS/MS. […]
The LC-MS/MS system was comprised of an Agilent 6495 triple quadrupole mass spectrometer coupled with an Agilent 1290 Infinity system (Agilent Technologies, Wilmington, DE, USA). […] The electrospray ionization (ESI) source settings in both positive and negative ion modes were as follows: gas temperature, 200 °C; gas flow, 14 L/min; nebulizer, 40 psi; sheath gas temperature, 380 °C; sheath gas flow, 11 L/min; capillary voltage, 4500 V; and nozzle voltage, 500 V. Each metabolite was quantified via selected reaction monitoring in the negative ion mode (chenodeoxycholic acid 24-acyl-β-glucuronide, m/z 567.1 to 391.2; mycophenolic acid β-D-glucuronide, m/z 495.0 to 319.0; propofol glucuronide (IS), m/z 353.0 to 177.0) and in the positive ion mode (SN-38 glucuronide, m/z 568.9 to 392.9; trifluoperazine N-β-D-glucuronide, m/z 583.9 to 407.9; N-acetylserotonin β-D-glucuronide, m/z 394.0 to 219.0; naloxone 3-β-D-glucuronide, m/z 503.9 to 309.9; meloxicam (IS), m/z 351.9 to 115.0). […]

CYP2B6 = assay: CYP2B6-catalyzed bupropion hydroxylase activity in human hepatocytes after 48 h treatment
Procedure: Samples were incubated for 48 h at 37 °C in 5% CO2, and the medium was exchanged with 250 μL of fresh medium containing drugs or the vehicle every 24 h.
The effects of mertansine on CYP1A2, CYP2B6, and CYP3A4 activities were evaluated. […] Mixtures were vortexed for 2 min and then centrifuged at 13,000 g for 4 min at 4 °C. The supernatant (40 µL) was diluted with 60 µL of deionized water and then mixed for 2 min by vortexing. An aliquot (5 µL) was analyzed using LC-MS/MS [37], and CYP1A2, CYP2B6, and CYP3A4 enzyme activities were expressed as formation rates (pmol/million cells/min).
The percentage changes in enzymatic activities were calculated as (CYP activity with test compound treatment/CYP activity with vehicle control treatment) × 100. The IC50 (the concentration of the inhibitor needed for half-maximal inhibition) values were calculated using SigmaPlot ver. […] Ki (the inhibition constant) and the inhibition mode of UGT1A1, UGT1A3, and UGT1A4 activities were determined using Enzyme Kinetics ver. 1.1 (Systat Software, Inc.).

Question: Which IC50 at 48 h ([1]; Mean ± SD of three human hepatocyte lots, 48 h) does the source give for `COc1cc2cc(c1Cl)N(C)C(=O)CC(OC(=O)C(C)N(C)C(=O)CCS)C1(C)OC1C(C)C1CC(O)(NC(=O)O1)C(OC)C=CC=C(C)C2` (stereo not drawn) [mertansine, Mertansine] here?
Answer: The IC50 at 48 h was 93.7 ± 109 nM.

Question: And the IC50 at 48 h ([1]; human hepatocytes Lot 319, 48 h)?
Answer: The IC50 at 48 h was 220 nM.

Question: And the IC50 at 48 h ([1]; human hepatocytes Lot 321, 48 h)?
Answer: The IC50 at 48 h was 34.3 nM.

Question: And the IC50 at 48 h ([1]; human hepatocytes Lot 361, 48 h)?
Answer: Its IC50 at 48 h is 27.3 nM.

Question: What about the “Inhibition Mode, UGT1A1” value (UGT1A1; human liver microsomes, Dixon plot) of the same compound?
Answer: Its value is “noncompetitively inhibited; also recorded: noncompetitive inhibitor”.

Question: What about the Ki (UGT1A1; human liver microsomes, SN-38 0.2–2 µM) of the same compound?
Answer: The Ki was 13500 nM.

Question: And the IC50 (UGT1A1; ultrapooled human liver microsomes, 0.5 µM SN-38 (cocktail))?
Answer: The IC50 was 16200 nM.

Question: What about the “Mean decrease of CYP2B6-mediated bupropion hydroxylase activity” value (CYP2B6; highest concentration (2500 nM), 48 h, mean of three human hepatocytes) of the same compound?
Answer: The value was 63.5%.

Question: What about the “Decrease of CYP2B6-mediated bupropion hydroxylase activity compared to vehicle” value (CYP2B6; mertansine 48 h, three human hepatocytes) of the same compound?
Answer: Its value is 23.9–93.1%.
